Values of other authors, collected in US20210137903A1, “ANTI-ANDROGENS FOR THE TREATMENT OF PROSTRATE CANCER” (priority 2019, published 2021).

What was measured:
AR = AR (Homo sapiens, UniProt P10275); conditions: cited from earlier work
T877A AR mutant = biological target: T1, T877A AR mutant (Homo sapiens, UniProt P10275, T878A); conditions: cited from earlier work
T1 sequence (P10275 1-920 T878A): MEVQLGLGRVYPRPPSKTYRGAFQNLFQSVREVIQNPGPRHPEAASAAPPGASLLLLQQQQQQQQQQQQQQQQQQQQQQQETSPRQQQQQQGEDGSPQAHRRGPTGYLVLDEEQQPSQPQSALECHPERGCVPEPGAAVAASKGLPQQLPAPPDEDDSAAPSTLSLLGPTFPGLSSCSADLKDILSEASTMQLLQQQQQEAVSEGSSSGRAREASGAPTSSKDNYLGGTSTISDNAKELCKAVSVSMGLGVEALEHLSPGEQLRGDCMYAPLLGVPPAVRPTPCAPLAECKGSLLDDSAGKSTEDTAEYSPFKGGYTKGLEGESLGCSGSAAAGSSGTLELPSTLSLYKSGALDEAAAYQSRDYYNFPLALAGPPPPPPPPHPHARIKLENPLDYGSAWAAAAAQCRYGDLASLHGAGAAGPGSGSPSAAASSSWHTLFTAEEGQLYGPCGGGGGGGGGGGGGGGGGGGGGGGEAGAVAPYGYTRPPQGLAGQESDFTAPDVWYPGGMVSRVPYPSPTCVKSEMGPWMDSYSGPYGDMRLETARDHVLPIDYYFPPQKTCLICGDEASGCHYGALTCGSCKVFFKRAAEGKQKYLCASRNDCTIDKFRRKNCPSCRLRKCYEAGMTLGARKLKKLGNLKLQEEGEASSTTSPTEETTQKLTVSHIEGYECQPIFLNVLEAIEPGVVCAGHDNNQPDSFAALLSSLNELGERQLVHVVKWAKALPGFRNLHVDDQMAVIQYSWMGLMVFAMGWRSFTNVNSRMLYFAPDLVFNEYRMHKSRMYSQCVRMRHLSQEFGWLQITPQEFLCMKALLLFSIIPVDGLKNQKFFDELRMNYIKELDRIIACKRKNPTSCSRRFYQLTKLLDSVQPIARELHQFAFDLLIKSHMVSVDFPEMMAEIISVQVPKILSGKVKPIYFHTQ

Sequence of AR (P10275 whole entry): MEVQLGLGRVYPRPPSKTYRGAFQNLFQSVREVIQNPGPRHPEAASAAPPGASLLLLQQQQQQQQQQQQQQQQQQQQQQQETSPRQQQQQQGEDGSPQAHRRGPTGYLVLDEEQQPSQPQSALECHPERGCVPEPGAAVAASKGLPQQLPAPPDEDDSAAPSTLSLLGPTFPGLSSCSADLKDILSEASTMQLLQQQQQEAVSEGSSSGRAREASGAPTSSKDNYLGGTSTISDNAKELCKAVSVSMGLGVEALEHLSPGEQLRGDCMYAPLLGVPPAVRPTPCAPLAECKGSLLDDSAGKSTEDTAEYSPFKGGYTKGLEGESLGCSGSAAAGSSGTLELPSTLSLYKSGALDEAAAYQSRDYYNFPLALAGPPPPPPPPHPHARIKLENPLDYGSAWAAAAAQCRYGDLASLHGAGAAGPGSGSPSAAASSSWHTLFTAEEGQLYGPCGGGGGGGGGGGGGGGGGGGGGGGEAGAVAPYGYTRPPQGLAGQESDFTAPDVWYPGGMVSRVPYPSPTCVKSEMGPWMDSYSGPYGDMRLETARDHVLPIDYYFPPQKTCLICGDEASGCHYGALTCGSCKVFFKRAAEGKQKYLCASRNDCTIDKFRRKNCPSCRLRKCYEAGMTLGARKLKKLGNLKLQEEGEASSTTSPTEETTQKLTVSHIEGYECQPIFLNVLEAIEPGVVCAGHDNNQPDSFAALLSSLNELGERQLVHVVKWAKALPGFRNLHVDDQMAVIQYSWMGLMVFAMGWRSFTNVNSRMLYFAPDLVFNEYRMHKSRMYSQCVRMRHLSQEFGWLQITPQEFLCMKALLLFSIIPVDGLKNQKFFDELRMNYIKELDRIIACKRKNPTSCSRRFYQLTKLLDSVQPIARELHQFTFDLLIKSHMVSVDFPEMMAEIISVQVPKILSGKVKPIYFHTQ

Row | Structure (SMILES) | affinity of binding to AR (AR) | AR agonist activity (T877A AR mutant)
1 | CC(O)c1cc(C(=O)N[C@@H](C)Cn2ccc(-c3ccc(C#N)c(Cl)c3)n2)[nH]n1 (some centres unmarked) [Darolutamide] | high affinity | –
2 | CC(C)(O)C(=O)Nc1ccc([N+](=O)[O-])c(C(F)(F)F)c1 [hydroxyflutamide] | – | act as AR agonists
